Like-named read-outs stand apart in the source and are kept apart here.
Tests used:
[1] = tested on: HeLa cells; assay: Cell cycle distribution by flow cytometry (propidium iodide), HeLa; format: cell-based, human; details: for SubG1 (%) / G2/M (%) / S (%) / G0/G1 (%): HeLa, 10 μg/mL, 24 h; for SubG1 (%): control 2.3 ± 0.4; for G2/M (%): control 12.2 ± 1.3; for S (%): control 12.5 ± 1.7; for G0/G1 (%): control 73.1 ± 2.6; for cytostatic effect (cell cycle), HeLa: HeLa cell line
Protocol: One of the indicators of the influence of biologically active products on the cells is the changed distribution of cells during different stages of the cell cycle. In this work, recently synthesized compounds were tested using flow cytometry for their effect on the distribution of cells in the cell cycle (G0/G1, G2/M, and S). Figure 8, Figure 9 and Figure 10 and Table 3 show the typical data after processing the results from three replicates of each experiment.
The distribution of HeLa and CT26 cells in the G0/G1-, S-, and G2/M-phases of the cell cycle was obtained by quantification of DNA content in propidium-iodide-stained cells using flow cytometry. Briefly, cells were seeded in 24-well plates at a density of 5 × 10^4 cells per well. After 24 h incubation, cells were exposed to 10 μg/mL of compounds 4c–i (the structure is provided in Scheme 1) for 24 h. The effects of compounds 4d, 4e, 4g, 4h were additionally tested at concentrations of 2 and 5 μg/mL. After incubation with drugs, the cells were detached by exposure to trypsin-EDTA for 5 min at 37 °C and then collected by pipetting. This was followed by treatment with 0.2 mg/mL saponin (Fluka, Waltham, MA, USA), 0.25 mg/mL RNase (Sigma-Aldrich, St. Louis, MO, USA), and 0.05 mg/mL propidium iodide (Invitrogen, Carlsbad, CA, USA). After washing, the samples were analyzed by standard flow cytometer (BD FACSCanto II, Becton Dickinson, San Jose, CA, USA). Then, 10,000 events were acquired for the sample. Data processing was performed using BD FACSDiva 9.0 software.

[2] = tested on: Vero cells; assay: Actin cytoskeleton staining (rhodamine-phalloidin, confocal microscopy), Vero; format: cell-based, African green monkey; details: 5 μg/mL, 24 h
Protocol: Therefore, in the current study, the actin cytoskeleton structure of HeLa, CT26, and Vero cells was analyzed, after the impact of compounds 4a–i, by the presence of filopodia-like protrusions and the availability of stress fibers (Figure 14, Figure 15 and Figure 16). […] HeLa cells were more sensitive to the action of tested products, compared to CT26 and Vero cells.
Cells were seeded onto Petri dishes with cover slips at a density of 2 × 10^5 cells per dish and incubated for 24 h. After that, cells were treated with compounds 4d, 4e, 4f, 4h, and 4i (5 μg/mL) for 24 h. The medium was removed, and cells were fixed with 4% paraformaldehyde (Sigma-Aldrich, St. Louis, MO, USA), washed three times with PBS, and permeabilized with 0.3% Triton-X100 (Sigma-Aldrich, St. Louis, MO, USA). The cells were rinsed three times with PBS. Actin filaments (microfilaments) were stained at 37 °C for 15 min with rhodamine-phalloidin (Invitrogen, Carlsbad, CA, USA). The samples were rinsed three times with PBS, followed by embedding in Fluoroshield medium (Sigma-Aldrich, St. Louis, MO, USA). Cells were imaged using an Axio Observer Z1 confocal microscope (Carl Zeiss MicroImaging GmbH, Jena, Germany). In each experiment, at least 30 cells were imaged. Images were analyzed by a pathologist, blinded to the treatment mode used for each group, using ImageJ software.

[3] = tested on: human cervical carcinoma (HeLa) cell line; assay: MTS antiproliferative (cytotoxicity) assay, HeLa; format: cell-based; details: HeLa; for SI (selectivity index), HeLa: Vero as reference cell line; for IC50: Homo sapiens
Protocol: The cytotoxicity of synthesized 3-azaspiro[bicyclo[3.1.0]hexane-2,5′-pyrimidines] 4 against human erythroleukemia (K562), cervical carcinoma (HeLa), and T lymphocyte (Jurkat), as well as mouse colon carcinoma (CT26) and African green monkey kidney epithelial (Vero) cell lines as reference, was evaluated in vitro by the standard MTS assay for 24 and 72 h.
All the cell lines (human cervical carcinoma (HeLa), erythroleukemia (K-562), and T lymphocyte (Jurkat) as well as mouse colon carcinoma (CT26) and African green monkey kidney epithelial (Vero)) were obtained from the cell repository “Vertebrate cell culture collection” (supported by the Ministry of Science and Higher Education of the Russian Federation, agreement №075-15-2021-683, Institute of Cytology, Russian Academy of Sciences, Saint Petersburg, Russia). HeLa, Jurkat, and Vero cells were cultured in DMEM (HyClone, South Logan, UT, USA) supplemented with 10% (v/v) fetal bovine serum (Hyclone, GE Healthcare Life Sciences, Logan, UT, USA), and gentamicin (Sigma-Aldrich, St. Louis, MO, USA) at 37 °C in a humidified atmosphere with 5% CO2. K-562 and CT26 cells were grown at RPMI medium (Hyclone, GE Healthcare Life Sciences, Logan, UT, USA), with the same supplements and conditions.
To evaluate the in vitro toxicity of compounds synthesized, cells were seeded into 96-well plates at a density of 5 × 10^3 cells per well. On the next day, tested compounds were added to the wells at concentrations ranging from […], followed by incubation for 1 and 3 days. Cell proliferation was determined by adding 20 μL of MTS reagent (BioVision, Milpitas, CA, USA) stock solution per well. Each plate was incubated for 2 h at 37 °C in a humidified, 5% CO2 atmosphere. The plates were then read at 495 nm using plate spectrophotometer (Multiskan GO, Thermo Fisher Scientific, Waltham, MA, USA). All samples were measured in triplicates.

[4] = tested on: HeLa cells; assay: Scratch test of cell motility, HeLa; format: cell-based, human; details: 10 μg/mL, 24 h, serum-free, nontreated 29.3 ± 2.0%
Protocol: To evaluate the ability of tested adducts to inhibit cell-motility-associated metastasis, a scratch test was performed on the HeLa, CT26, and Vero cell lines. The results are shown in Figure 11, Figure 12 and Figure 13. Nontreated HeLa cells filled the scratched strip at 29.3 ± 2.0%, while cells filled 10.4 ± 1.8%, 11.2 ± 1.1%, 20.2 ± 2.9%, 4.8 ± 1.9%, and 11.7 ± 1.8% of the scratched strip under treatment with adducts 4d, 4e, 4f, 4h, and 4i, respectively (Figure 11).
Cells were seeded onto Petri dishes at a density of 5 × 10^5 cells per dish and grown to confluency. Scratch wounds were made with a 200 μL pipette tip, after which detached cells were removed by washing with phosphate-buffered saline. In order to inhibit cell proliferation, culture media was replaced to serum-free DMEM. Compounds 4d, 4e, 4f, […] were added to the cultures at a dose of 10 μg/mL and incubated for 24 h. After that, the cells were stained with Hoechst 33,342 (Thermo Fisher Scientific, Waltham, MA, USA), by adding 2 μL of 1 mg/mL stock solution to 2 mL of medium and DIBAC4 (3) (Thermo Fisher Scientific, Waltham, MA, USA) at the same dose. Images were captured using confocal microscope (Axio Observer Z1, Carl Zeiss MicroImaging GmbH, Jena, Germany). The percentage of wound closure in five randomly chosen fields was calculated with NIH ImageJ software.

[5] = 24 h, read-out: IC50, HeLa, 24 h
[6] = 72 h, read-out: IC50, HeLa, 72 h

Row | SMILES | SubG1 (%) [1] | G2/M (%) [1] | S (%) [1] | G0/G1 (%) [1] | percentage of cells with disassembled stress fibers (D) [2] | percentage of cells with filopodia-like deformations (A) [2] | percentage of cells with normal stress fibers (C) [2] | percentage of cells without filopodia-like deformations (B) [2] | SI (selectivity index), HeLa [3] | IC50 [3, 5] | IC50 [3, 6] | scratched strip filled by cells [4] | cytostatic effect (cell cycle), HeLa [1]
1 | CCC[C@@H]1NC2(C(=O)NC(=O)NC2=O)[C@]2(c3ccccc3)[C@@H](c3ccccc3)[C@]12c1ccccc1 [Compound 4d] | 18.1 ± 1.0 % | 8.4 ± 1.5 % | 15.5 ± 1.1 % | 58.0 ± 4.4 % | 6% | 45% | 94% | 55% | 1.1 | 17 ± 2 µM | 15 ± 2 µM | 10.4 ± 1.8% | –
2 | CSCC[C@@H]1NC2(C(=O)NC(=O)NC2=O)[C@]2(c3ccccc3)[C@@H](c3ccccc3)[C@]12c1ccccc1 [Compound 4h] | 9.9 ± 7.8 % | 12.6 ± 0.8% | 13.9 ± 1.8% | 63.6 ± 6.8 % | 8% | 46% | 92% | 54% | 1.0 | 28 ± 2 µM | 24 ± 6 µM | 4.8 ± 1.9% | –
3 | CC(C)C[C@@H]1NC2(C(=O)NC(=O)NC2=O)[C@]2(c3ccccc3)[C@@H](c3ccccc3)[C@]12c1ccccc1 [Compound 4f] | 10.5 ± 2.0 % | 12.8 ± 1.3% | 15.2 ± 1.2 % | 61.5 ± 3.3 % | 4% | 43% | 96% | 57% | 0.5 | 19 ± 2 µM | 23 ± 6 µM | 20.2 ± 2.9% | –
4 | CCCCCC[C@@H]1NC2(C(=O)NC(=O)NC2=O)[C@]2(c3ccccc3)[C@@H](c3ccccc3)[C@]12c1ccccc1 [Compound 4g] | 39.5 ± 5.0 % | 5.3 ± 0.7 % | 13.3 ± 0.8% | 41.8 ± 3.0 % | – | – | – | – | 1.1 | 15 ± 2 µM | 13 ± 2 µM | – | strongest cytostatic effect
5 | CC[C@@H]1NC2(C(=O)NC(=O)NC2=O)[C@]2(c3ccccc3)[C@@H](c3ccccc3)[C@]12c1ccccc1 [Compound 4c] | 8.1 ± 1.9 % | 11.0 ± 1.5% | 17.6 ± 1.2 % | 63.3 ± 2.2 % | – | – | – | – | 1.3 | 21 ± 2 µM | 13 ± 2 µM | – | –
6 | CCCC[C@@H]1NC2(C(=O)NC(=O)NC2=O)[C@]2(c3ccccc3)[C@@H](c3ccccc3)[C@]12c1ccccc1 [Compound 4e] | 34.4 ± 5.8 % | 5.7 ± 0.9 % | 16.7 ± 1.2 % | 43.1 ± 1.4 % | 11% | 44% | 89% | 56% | 0.8 | 13 ± 2 µM | 13 ± 4 µM | 11.2 ± 1.1% | strongest cytostatic effect
7 | O=C1NC(=O)C2(N[C@@H](c3ccccc3)[C@@]3(c4ccccc4)[C@H](c4ccccc4)[C@@]23c2ccccc2)C(=O)N1 [Compound 4i] | 20.1 ± 1.3 % | 9.9 ± 0.8 % | 18.1 ± 2.4 % | 51.8 ± 4.0 % | 2% | 30% | 98% | 70% | 2.0 | 10 ± 2 µM | 12 ± 6 µM | 11.7 ± 1.8% | –
